Data as given in patent US8008260B2, “Methods of protecting against apoptosis using lipopeptides” (Cleveland Clinic Foundation, priority 2005, dated 2011).
Peptide text beside a SMILES is read from it. * marks the point of attachment. Propyl(2R-PamO,3-PamO) = CCCCCCCCCCCCCCCC(=O)OC[C@H](C*)OC(=O)CCCCCCCCCCCCCCC

Experiments:
TLR2/TLR6 heterodimer = molecular target: T1, TLR2/TLR6 heterodimer (Homo sapiens, UniProt O60603+Q9Y2C9); assay: NF-κB-dependent reporter activity in 293 cells expressing the TLR2/TLR6 heterodimer; type: cell-based; parameters: NF-κB activation: scale not given here; details: for activation of the NF-κB reporter (in words, compared with CBLB601): 293 cells expressing TLR2/TLR6, various doses; for NF-κB activation: in vitro activity, 293 cells expressing TLR2/TLR6
T1 construct: expressed in transfected cells; host or cells: 293 cells
Description: NF-κB-dependent reporter activity was measured in 293 cells that expressed the TLR2/YLR6 heterodimer. […] None of the non-palmitoylated corresponding peptides activated the NF-κB reporter (FIG. 18B). The peptide component of CBLB617 has a (−4) charge, which should prevent it from interacting with negatively charged cell surface markers. […] Table 5 summarizes the in vitro activity and solubility of all the compounds.

ICR mice = assay: Radioprotection against total body gamma irradiation (TBI), 30-day survival; type: in vivo
Excerpt: CBLB601, a R-Pam2-lipopeptide with the peptide moiety consisting of C-SKKKK (SEQ ID NO: 8), was selected for more detailed characterization as a radioprotector based upon its ability to activate NF-κB and preliminary in vivo data on radioprotection in NIH-SWISS mice (see Example 2). The objectives of this study were to determine the optimal dose, route of administration, and time of administration of CBLB601 to serve as a protector. ICR female mice of 10-15 weeks of age were used, with 10-15 animals per group or condition.
The optimal intraperitoneal administration schedule of CBLB601 was determined by injecting the compound at different times prior to irradiation. […] Therefore, all of the optimization experiments were performed with 10 Gy of total body irradiation (TBI). A dose of 3 μg of BCLB601/mouse (1/10 NOAEL) was chosen as the starting dose. Thus, 3 μg of CBLB601 was injected i.p. into ICR mice at 0.5 h, 1 h, 6 h, and 24 h or 1 h, 24 h, 48 h, 72 h, 96 h prior to 10 Gy of TBI (as described in Example 1). […] Injection of CBLB601 24 hrs before irradiation clearly yielded the best radioprotection (90-100% 30-day survival). When the compound was administered 48 hrs before irradiation, the radioprotection was ˜30%. Administration of CBLB601 at 1 hr prior to irradiation produced inconsistent results ranging from 80% protection in one experiment (FIG. 5B) to almost no protection (20%) in another experiment (FIG. 5A).
To determine the optimal radioprotective dose of CBLB601, the timing of injection and level of irradiation were kept constant, while the dose of CBLB601 was varied. ICR mice were injected i.p. with 1, 3, 10, 20, or 30 μg of CBLB601/mouse or 0.1, 0.3, 1, 3, 10, or […] 24 hrs prior to irradiation (10 Gy of TBI), and their survival was monitored for 30 days. The best protective dose was 3 μg/mouse, which supported a survival of 100% (FIGS. 6 A and B). […] Thus, the optimal protective dose of CBLB601 was determined to be 3 μg/mouse.
To determine the level of radiation that was protected by CBLB601, radioprotectant-treated and control mice were exposed to increasing levels of TBI. Groups of ICR mice were injected i.p. with either 3 μg CBLB601/mouse or PBS, and then 24 h later they received 10, 11, 12, 13, 14, and 15 Gy doses of TBI. Survival was recorded over 30 days. […] All of the mice irradiated with 10-11 Gy of TBI died between days 12-14 post irradiation, which was typical for death due to hematopoietic failure. All of the mice that received 14-15 Gy of TBI died between days 7-9 post irradiation, which was typical for mortality due to radiation-induced intestinal damage. Mice that were irradiated with 12-13 Gy of TBI died at intermediate times, which was typical for a mixed etiology of radiation-induced mortality. […] To reach a statistically significant 10% difference between control and CBLB601-treated mice, experimental groups of at least 50 mice must be used. Although CBLB601 rescued 100% of mice from 10 Gy of TBI, its protection at 11 Gy of TBI was only 20%. […] This may be indicative of a combined toxicity of the drug and the irradiation.
CBLB601 was administered intramuscularly to determine the optimal route of administration of this compound (especially since this would be the preferred route of administration for humans). […] In another experiment, increasing doses of CBLB601 administered i.m. were tested against 10, 11, and 12 Gy doses of […] (FIG. 9). […] A summary of the dose-dependency of the radioprotection of […] administered i.p. or i.m. 24 h prior to 10 Gy of TBI is shown in FIG. 10.
The optimal schedule of intramuscular administration of CBLB601 was determined by varying the time between drug delivery and irradiation. ICR mice were injected i.m. with 3 μg of CBLB601/mouse 24 h, 6 h, 3 h, and 1 h prior to TBI and +1 h, +3 h after TBI (FIG. 12A), as well as 48 h, 36 h, 24 h, 12 h, and 6 h prior to TBI (FIG. 12B). […]

mice = assay: Mitigation of radiation injury, injection 1 hr after TBI; type: in vivo
Description: The ability of CBLB612 to serve as a mitigator of lower dose radiation injury was also examined. For this, 50 μg of CBLB612/mouse was injected intramuscularly 1 hr after exposure to 8.5, 9, or 10 Gy of TBI.

[1] = Solubility of the lipopeptides
C57B1/6J mice = assay: Survival after gamma irradiation with p53 inhibitor pretreatment; type: in vivo; details: 10 mg/kg i.p.
Description: To examine the role of p53 in radiation-induced death, mice were treated with the small molecule inhibitor of p53, pifithrin-alpha (PFTα) (Komarov et al., Science 285:1733-7, 1999) immediately prior to gamma irradiation. C57B1/6J mice (6-8 weeks old males were used here and below, if not indicated otherwise) were injected intraperitoneally with 10 mg/kg of PFTα and then irradiated using a Shepherd 4000 Ci ^137Cesium source at a dose rate of 4 Gy per minute.

T1 sequence (O60603 21-784): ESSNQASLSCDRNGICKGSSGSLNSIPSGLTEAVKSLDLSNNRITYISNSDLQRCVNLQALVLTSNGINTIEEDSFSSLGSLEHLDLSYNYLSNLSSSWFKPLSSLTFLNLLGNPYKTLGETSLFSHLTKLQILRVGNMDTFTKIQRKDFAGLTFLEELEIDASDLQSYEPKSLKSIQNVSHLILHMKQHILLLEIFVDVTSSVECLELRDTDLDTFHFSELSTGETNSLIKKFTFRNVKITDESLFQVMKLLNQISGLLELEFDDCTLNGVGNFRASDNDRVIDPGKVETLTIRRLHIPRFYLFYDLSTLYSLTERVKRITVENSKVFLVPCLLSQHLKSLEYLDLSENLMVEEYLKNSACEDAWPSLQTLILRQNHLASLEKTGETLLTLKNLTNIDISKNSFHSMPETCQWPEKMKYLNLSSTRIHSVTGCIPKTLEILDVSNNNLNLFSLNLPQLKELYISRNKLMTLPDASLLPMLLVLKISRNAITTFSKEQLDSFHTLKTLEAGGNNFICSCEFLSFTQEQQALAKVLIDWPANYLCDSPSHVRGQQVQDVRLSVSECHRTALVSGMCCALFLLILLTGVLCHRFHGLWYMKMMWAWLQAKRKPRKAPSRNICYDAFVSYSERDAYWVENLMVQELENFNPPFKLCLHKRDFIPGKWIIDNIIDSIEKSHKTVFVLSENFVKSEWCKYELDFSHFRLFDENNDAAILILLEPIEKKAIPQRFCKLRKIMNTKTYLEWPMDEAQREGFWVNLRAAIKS
T1 sequence (Q9Y2C9 32-796): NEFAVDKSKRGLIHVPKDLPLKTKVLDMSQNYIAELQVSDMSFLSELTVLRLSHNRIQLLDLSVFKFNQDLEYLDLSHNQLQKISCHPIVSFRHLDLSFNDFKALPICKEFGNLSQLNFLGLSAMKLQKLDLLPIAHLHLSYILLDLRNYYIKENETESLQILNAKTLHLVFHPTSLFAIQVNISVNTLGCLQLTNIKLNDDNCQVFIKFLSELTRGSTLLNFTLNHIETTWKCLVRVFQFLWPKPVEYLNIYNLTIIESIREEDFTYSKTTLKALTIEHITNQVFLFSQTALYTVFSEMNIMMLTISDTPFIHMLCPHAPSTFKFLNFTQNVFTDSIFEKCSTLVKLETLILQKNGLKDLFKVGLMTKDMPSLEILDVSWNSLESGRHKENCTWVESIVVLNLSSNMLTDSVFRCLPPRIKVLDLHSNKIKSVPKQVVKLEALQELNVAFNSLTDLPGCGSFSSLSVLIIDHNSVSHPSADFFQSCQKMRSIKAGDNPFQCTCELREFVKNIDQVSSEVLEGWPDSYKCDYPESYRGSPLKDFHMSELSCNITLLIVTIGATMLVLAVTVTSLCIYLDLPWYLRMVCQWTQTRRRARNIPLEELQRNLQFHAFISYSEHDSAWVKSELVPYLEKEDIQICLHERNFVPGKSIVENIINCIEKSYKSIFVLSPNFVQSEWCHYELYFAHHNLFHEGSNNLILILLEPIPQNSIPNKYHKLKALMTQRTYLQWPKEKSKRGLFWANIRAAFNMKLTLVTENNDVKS

CCCCCCCCCCCCCCCC(=O)OC[C@H](CSC[C@H](N)C(=O)N[C@H](C(=O)N[C@@H](CCC(N)=O)C(=O)NCC(=O)N[C@@H](CCC(=O)O)C(=O)N[C@@H](CCC(=O)O)C(=O)N[C@@H](CO)C(=O)N[C@@H](CC(N)=O)C(=O)N[C@@H](CC(=O)O)C(=O)N[C@@H](CCCCN)C(=O)O)C(C)C)OC(=O)CCCCCCCCCCCCCCC [CBLB612] (H-C(Propyl(2R-PamO,3-PamO))VQGEESNDK-OH)
activation of the NF-κB reporter (in words, compared with CBLB601) (TLR2/TLR6 heterodimer): better activators than CBLB601
NF-κB activation (TLR2/TLR6 heterodimer): 200
toxicity in combination with radiation (ICR mice; i.m. 24 hours before 10 Gy TBI): no toxicity in combination with radiation
rank of radioprotective potency (ICR mice; i.m. 24 hrs before 10 Gy TBI): CBLB612>CBLB614>CBLB615
radioprotector quality compared with CBLB601 (ICR mice; mouse, in vivo): significantly better radioprotectors than CBLB601
therapeutic index (ICR mice; summary of Example 5): ~20
survival rate versus PBS (mice; 50 μg/mouse i.m. 1 hr after 8.5, 9 or 10 Gy TBI): increased the survival rate at every dose of radiation
mice surviving to 27 days (mice; 50 μg/mouse i.m. 1 hr after 8.5 Gy TBI): 90%
mice surviving to 27 days (mice; 50 μg/mouse i.m. 1 hr after 9 Gy TBI): 70%
Solubility [1]: Excellent

CCCCCCCCCCCCCCCC(=O)OC[C@H](CSC[C@H](N)C(=O)NCC(=O)N[C@@H](CCC(=O)O)C(=O)N[C@@H](CCC(=O)O)C(=O)N[C@@H](CC(=O)O)C(=O)N[C@@H](CC(=O)O)C(=O)O)OC(=O)CCCCCCCCCCCCCCC [CBLB617] (H-C(Propyl(2R-PamO,3-PamO))GEEDD-OH)
activation of the NF-κB reporter (in words, compared with CBLB601) (TLR2/TLR6 heterodimer): comparable to that of CBLB601
NF-κB activation (TLR2/TLR6 heterodimer): 100
survival (ICR mice; after 13 days, doses of 10-87.5 μg/mouse respectively, 10 Gy TBI): 7-90%
visible toxicity (ICR mice; after 13 days, highest dose 87.5 μg/mouse, 10 Gy TBI): no visible toxicity
Solubility [1]: Soluble

Cc1ccc(C(=O)Cn2c3c(sc2=N)CCCC3)cc1 [PFTα, pifithrin-alpha]
survival of irradiated mice (C57B1/6J mice; fractioned cumulative 12.5 Gy (5×2.5 Gy)): protected mice
survival of irradiated mice (C57B1/6J mice; single 9 Gy dose): protected mice
survival of irradiated mice (C57B1/6J mice; single 12.5 Gy): no effect on the survival
survival of irradiated mice (C57B1/6J mice; single 25 Gy): no effect on the survival
